Experimental findings from patent publication US11890286B2, “Methods and compositions for treating cancer” (THE UNIVERSITY OF CHICAGO, priority 2018, dated 2024) are described below.

Assay [1] has as its system BM1 cells. Put plainly: 3D proliferation of BM1 cells (total cell number in the invasion assay). Type of assay: cell-based, human. The conditions noted are these: BM1, 10 μM and above. As for the experimental part:
(§1) The chemotaxis module in IncuCyte® can accurately count the number of cell in the top chamber and the bottom chamber of the ClearView plates separately. Invasive capability of the cells in the presence of various small molecule inhibitors was measured as the percentage of cells that moved to the bottom chamber over the period of 72 hours. The formula used for this calculation is (number of cells in the bottom chamber)/(number of cells in the bottom chamber+number of cells in the top chamber)×100. The total number of cells in the top and bottom chambers is used as a readout of proliferation, which was important for determining drug combinations that blocked invasion without affecting growth properties of the cells.
3D Cultures: For 3D proliferation experiments, we used Cultrex® 3D Basement Membrane Matrix, Reduced Growth Factor (Trevigen, Cat. No. 3445-005-01, Lot No 37353J16, Lot concentration: 15.51 mg/ml, referred to as BME). For all experiments, the cells in growth media were mixed with BME at a final concentration of 2 mg/ml. For 3D proliferation assays, 100 μl of the cell/BME mixture was dispensed into each well of a 96-well plate. Upon solidification of BME, 100 μl of growth media was added on top of the solidified gel. […] The growth of the cells was monitored in IncuCyte® Zoom or S3 models for the indicated duration of time.

In assay [2] the test system is BM1 cells (BM1-NucLight Red). Put plainly: High-throughput chemotactic invasion assay of nuclear-labeled BM1 cells. To be noted: 72 hours, single drug. Type of assay: cell-based, human. As for the experimental part: High-throughput chemotactic invasion assays: For testing anti-invasive drug combinations, IncuCyte® ClearView 96-Well Chemotaxis plates (Essen BioScience) were used. 2000 cells per well were embedded in 2 mg/ml BME and plated onto the chemotaxis plate following the manufacturer's instructions. Media containing 2% FBS was used in both top and bottom chambers to maintain cell viability over 72 hours or more. 200 ng/ml human EGF (Bio-Techne, 236-EG-01M) was used as the chemotactic agent in the bottom chamber, and the control wells only had the vehicle for the chemotactic agent.
This assay is more accurate when nuclear-labeled cells are used. Therefore, BM1-mKate2 (nuclear red) cells were generated using IncuCyte® NucLight Red Lentivirus Reagent (Essen BioScience, Cat. No. 4478) following the manufacturer's instructions. After transduction, cells with the highest nuclear red signal intensity (top 25%) were sorted by FACS.
as §1

Another assay relates to JNK. As to the kind of experiment: Signaling study in vitro, immunoblot of JNK phosphorylation in TNBC cell lines. The format is cell-based, human and mouse. As for the experimental part: (§2) Signaling studies in vitro: In order to investigate the changes in stress kinase signaling upon stress in the presence of RKIP, or small molecule inhibitors of the MAPKs, cells were plated at sub-confluence. Once they reached roughly 70% confluence, they were starved overnight (16-24 hours) in serum-free media, and then induced with either anisomycin (Sigma-Aldrich, Cat. No. A9789) at 25 ng/ml or 100 ng/ml final concentration, or by 10% serum for 30 minutes to activate MAPK pathways. In studies with small molecule inhibitors of the MAPK pathway, all inhibitors were re-suspended in DMSO and used at indicated concentrations. The cells were pre-treated with the inhibitors in serum-free media for 30 minutes after overnight starvation, immediately before induction with anisomycin or serum for 30 minutes. In this case, the inducing agent was directly added to the pre-treatment media that already had the inhibitors, or the pre-treatment media was replaced by fresh media containing the inducer and the inhibitors. […]
(§3) Protein isolation and western blots: Cultured cells were washed with cold PBS and lysed in RIPA buffer with protease inhibitors (Millipore Sigma, Cat. No. 539134) and phosphatase inhibitors (GoldBio, Cat. No. GB-450). […] Supernatant was collected and the protein concentration measured using the Bradford assay. […]

The next assay concerns p38. Put plainly: Signaling study in vitro, immunoblot of p38 phosphorylation in TNBC cell lines. The format is cell-based, human and mouse. To be noted: anisomycin-induced human cell lines (BM1, MB436). The method, then:
as §2, §3

Assay [3] has as its system BM1 cells. Put plainly: Chemotactic invasion assay, BM1 cells. Type of assay: cell-based, human. The conditions noted are these: increasing doses, single drug. The method, then: (§4) Boyden Chamber Invasion Assay: Each Boyden chamber membrane (Fisher Scientific, Cat. No. 353097) was coated with a thin layer of BME (200 μl of 0.25 mg/ml stock, or total of 50 μg of BME per membrane) and incubated at 37° C. for 1 hour. Cells were trypsinized and centrifuged at 500×g for 5 minutes followed by two rounds of PBS washes to remove remaining serum-containing media. Then, the cells were resuspended in serum-free media and diluted to the desired concentration for plating onto the Boyden chambers. Each Boyden chamber received 20,000-100,000 cells in 300 μl serum-free media, depending on the cell line. 10% serum was used as the chemoattractant for these assays. For the experiments testing the effect of MAPK inhibitors on invasion, the cells were resuspended in drug-containing serum-free media immediately. After 16-24 hours, the membranes were stained with Calcein AM (Fisher Scientific, Cat. No. 354217) for 1 hour at 37° C. in the dark to stain for live cells. Cells that are in the top chamber were removed from the membrane with a wet cotton swab. Cells in the bottom chamber were dissociated from the membrane by incubating in cell dissociation buffer (Trevigen, Cultrex®, Cat. No. 3455-096-05) in a shaker at 37° C. for 1 hour. Calcein AM signal was measured in Perkin Elmer Victor X3 plate reader as a read-out of invaded cells.

For a further assay, the system named is MB436 cells. Put plainly: Chemotactic invasion assay, MB436 cells. The format is cell-based, human. To be noted: increasing doses, single drug. As for the experimental part:
as §4

For another assay, the system named is orthotopic LMB tumors. As to the kind of experiment: Primary orthotopic LMB tumor growth in syngeneic mice. Type of assay: in vivo, mouse. The conditions noted are these: single inhibitor; for primary LMB tumor growth determined by final tumor weight: syngeneic model, 10 mg/kg/day or lower. The method, then: For primary tumor growth experiments, 2×10^6 BM1 cells, 5×10^5 LMB cells, or 1×10^6 […] cells were injected orthotopically near the mammary fat pad of athymic nude, C57B1/6, or C3-1-TAg-REAR mice, respectively. Tumor growth was monitored over time by caliper measurements of the width and length of tumors. Tumor volumes were calculated with the formula: For the in vivo studies involving MAPK inhibitors and the 4-drug MAPKi combination treatment, small molecule inhibitors were resuspended under sterile conditions. […] No. 91893)+50% saline. JNK inhibitor SP600125 and MEK inhibitor Trametinib were diluted in corn oil (Sigma, Cat. No. C8267). For the 4-drug combinatorial treatment, all inhibitors were dissolved in their own solvent at 4×higher concentration then the desired final concentration. Then, SB203580 and URMC-099 were mixed at a 1:1 ratio, reducing the concentration for each drug down to 2×. Similarly, SP600125 and Trametinib were mixed at a 1:1 ratio. These dual combination solutions were then filtered through 0.22 μm PES filter syringes to assure sterility. Each mouse received 50 μl of each dual combination on the same day, resulting in a total of 100 μl of drug mix (2 injections per mouse) with each drug at their desired 1×final concentration. […] All injections were intraperitoneal. For the tumor growth experiments with the MAPK inhibitors, tumors were allowed to reach the size 50-100 mm^3 size before the MAPKi treatment began. Then, the mice were treated with the respective MAPKi treatment (or the control) for up to 3 weeks. Tumor size was monitored twice a week with a caliper. For the metastasis assays, the tumor cells were treated with the 4-drug MAPKi combination at the in vitro doses for 24 hours prior to injections to allow for anti-metastatic reprogramming of the cells. Homing to metastatic tissues upon intracardiac or tail vein injections can take up to 48 hours. […] After the inoculation, the mice were treated with the inhibitors daily for up to 3 weeks until the experimental endpoints discussed above were reached.

In the case of `O=C(O)c1ccc2c(c1)nc(Nc1cccc(Cl)c1)c1ccncc12` [CX-4945], the “effect on growth at the doses that blocked invasion” value in the assay with BM1 cells [1] was “growth-inhibitory”.
For `Oc1c2ccccc2c2c3c(cccc13)N=N2` [SP600125, 1,9-Pyrazoloanthrone], in assay [2], the “minimal dose at which the proliferation rates were unaffected while the invasive capabilities of the cells were at least partially blocked” value (“minimal dose” below) is 1 µM.
Consider `CN1CCN(Cc2ccc(-c3cnc4[nH]cc(-c5ccc6[nH]ccc6c5)c4c3)cc2)CC1` [URMC-099, 3-(1H-indol-5-yl)-5-[4-[(4-methyl-1-piperazinyl)methyl]phenyl]-1H-pyrrolo[2,3-b]pyridine], for which the “minimal dose” value in assay [2] is 0.01 to 0.05 µM. The JNK activation entry with JNK (anisomycin-induced human cell lines (BM1, MB436)) was “decrease”. Also, the p38 activation result with p38 is on record as “decrease”. Further, the “invasion of BM1 cells” value with BM1 cells [3] is listed as “decreased invasion”. Also, in the assay with MB436 cells, the “invasion of MB436 cells” value is recorded as “decreased invasion”. Moreover, the “primary LMB tumor growth determined by final tumor weight” value with orthotopic LMB tumors is “do not affect primary LMB tumor growth”.
As for `C[S+]([O-])c1ccc(-c2nc(-c3ccc(F)cc3)c(-c3ccncc3)[nH]2)cc1` (stereo not shown) [SB203580, 4-(4-Fluorophenyl)-2-(4-methylsulfinylphenyl)-5-(4-pyridyl)-1H-imidazole], the “minimal dose” value in assay [2] was determined as 1 µM. The “JNK activation upon p38 inhibition (crosstalk)” value with JNK (serum-induced, all four human and mouse TNBC cell lines) is listed as “resulted in JNK activation”. In addition, the “primary LMB tumor growth determined by final tumor weight” value with orthotopic LMB tumors is listed as “do not affect primary LMB tumor growth”.
For the compound `CC(=O)Nc1cccc(-n2c(=O)n(C3CC3)c(=O)c3c(Nc4ccc(I)cc4F)n(C)c(=O)c(C)c32)c1` [Trametinib], in assay [2], the “minimal dose” value lay within 0.001 to 0.01 µM. For the same compound, in the assay on orthotopic LMB tumors (doses below 1 mg/kg), the “primary LMB tumor growth” value is listed as “no significant effect”.
